Test results: patent US20130165368A1, “ANTIMICROBIAL COMPOUNDS” (priority 2010, published 2013)
Converted amounts (≈) assume the structure as drawn. Read-outs that look alike come from different tables or passages of the source. Each block holds one compound with its values, some of them ahead of it.

Legend:
Assay type in all cases: cell-based
Pseudomonas aeruginosa = assay: MIC agar dilution, micro-organism 7 (10662); settings: Pseudomonas aeruginosa 10662
Description: (§1) Throughout the period of testing the microbial strains were subcultured and incubated for 18-20 hours at 37° C. on a weekly basis. Horse blood agar plates were used to sustain the micro-organisms both prior to and throughout testing. The alkoxylated alkanols listed in Table II below were obtained (these are obtainable from Sigma-Aldrich Company Ltd, Dorset, England), each having a GC purity of at least 97%.
(§2) Molar equivalent concentrations were used to allow comparison between compounds of differing molecular mass. Due to weighing difficulties, any compound in solid form was melted in a water bath prior to dilution. To make ten-times strength concentrations, which takes into account agar dilution, 0.0352 mmol of each compound was weighed into plastic universal bottles and 4 mL of sterile distilled water (SDW) was added. To produce a homogenous emulsion the universals were vortexed; once achieved the emulsions were serial diluted by adding 2 mL to 2 mL of SDW.
(§3) Myristyl alcohol and lauryl alcohol were re-weighed and dissolved in 25 μL of the polar solvent 1-methyl-2-pyrrolidone (M6762; Sigma-Aldrich) in sterile glass universals due to an inability to achieve an even suspension. To maintain an even emulsion in the presence of SDW 37.5 μL of the non-ionic detergent Tween 20 (P1379, Sigma-Aldrich) was also added. 3.9375 mL of SDW was added to these, to create a 4 mL volume; they were vortexed and diluted as before.
(§4) For every 100 mL of Isosensitest agar (IST) (CM0471; Oxoid, Basingstoke, England), 3.1 g of the IST powder was added to 100 mL SDW (as per manufacturer's instructions) and sterilised for 15 minutes at 121° C. Once sterilised, the molten agar was cooled to 50° C. in a water-bath. Subsequently 4.8 g of CCEY powder (BC2160; Bioconnections, Wetherby, England), also known as Brazier's medium, was added to 100 mL SDW for every 100 mL of agar needed. This was then sterilised for 15 minutes at 121° C. Once sterilised the molten agar was cooled to 50° C. in a water-bath and 4 mL of egg-yolk emulsion (S2073; TCS Biosciences Ltd, Buckingham, United Kingdom) and 1 mL of lysed defibrinated horse blood (HB035; TCS Biosciences Ltd, Buckingham, United Kingdom) were also added for every 100 mL needed. Horse blood lysis is achieved by dilution to half concentration with SDW; when fully lysed the mixture will turn dark red in colour.
(§5) 18 mL agar was added to each universal and then poured into sterile Petri dishes. This step creates a 1/10 dilution resulting in agar plates of the required strength. Control plates for each set of strains were created by adding 18 mL of agar to 2 mL of SDW.
(§6) Suspensions of each bacterial species were prepared with a density equal to that of a 0.5 McFarland standard using a densitometer. All suspensions were made using sterile distilled water and fresh 18-20 hour cultures. As a 0.5 McFarland standard contains 1.5×10^8 CFU/mL and the multipoint inoculators applies 1 μL spots of liquid, each bacterial suspension was diluted 1/15 (20 μL suspension to 280 μL sterile distilled water).
(§7) Bacterial suspensions were prepared from fresh 18-24 hour cultures as previously described. 1 μL of each strain was inoculated onto all 100 agar plates containing a different chemical concentration and the 2 control plates. This was done using a multipoint inoculator which inoculates 20 strains per plate. All plates were incubated for 22 hours at 37° C. in aerobic conditions.
(§8) Each plate was examined for bacterial growth after 22 and 48 hours, with each being incubated in between examinations. A positive result was recorded as growth of ≧10 colonies. A negative result was recorded as growth of <10 colonies as this is equivalent to 99.9% inhibition. The lowest concentration of chemical that inhibited growth was recorded as the MIC. The results are recorded in Table IV below, where the numbers are quoted in mmol/L.
(§9) Further experiments have also been conducted to determine the MIC of a number of other compositions as follows. […]

Listeria monocytogenes = assay: MIC agar dilution, micro-organism 15 (11994); settings: Listeria monocytogenes 11994
Description: as §1, §2, §3, §4, §5, §6, §7
as §8, with “mmol/L. […]” for “mmol/L.”

Acinetobacter baumannii = assay: MIC agar dilution, micro-organism 10 (19606); settings: Acinetobacter baumannii 19606
Description: as §1, §2, §3, §4, §5, §6, §7, §8, §9

Staphylococcus aureus = assay: MIC agar dilution, micro-organism 13 (6571); settings: Staphylococcus aureus 6571
Description: as §1, §2, §3, §4, §5, §6, §7
as §8, with “mmol/L. […]” for “mmol/L.”

Enterobacter cloacae = assay: MIC agar dilution, micro-organism 4 (11936); settings: Enterobacter cloacae 11936
Description: as §1, §2, §3, §4, §5, §6, §7, §8, §9

Candida albicans = assay: MIC agar dilution, micro-organism 19 (90028); settings: Candida albicans 90028
Description: as §1, §2, §3, §4, §5, §6, §7
as §8, with “mmol/L. […]” for “mmol/L.”

Burkholderia cepacia = assay: MIC agar dilution, micro-organism 9 (1222); settings: Burkholderia cepacia 1222
Description: as §1, §2, §3, §4, §5, §6, §7, §8, §9

Enterococcus faecalis = assay: MIC agar dilution, micro-organism 17 (775); settings: Enterococcus faecalis 775
Description: as §1, §2, §3, §4, §5, §6, §7
as §8, with “mmol/L. […]” for “mmol/L.”

Providencia rettgeri = assay: MIC agar dilution, micro-organism 3 (7475); settings: Providencia rettgeri 7475
Description: as §1, §2, §3, §4, §5, §6, §7
as §8, with “mmol/L. […]” for “mmol/L.”

Escherichia coli = assay: MIC agar dilution, micro-organism 1 (10418); settings: Escherichia coli 10418
Description: as §1, §2, §3, §4, §5, §6, §7
as §8, with “mmol/L. […]” for “mmol/L.”

Salmonella typhimurium = assay: MIC agar dilution, micro-organism 6 (74); settings: Salmonella typhimurium 74
Description: as §1, §2, §3, §4, §5, §6, §7, §8, §9

Enterococcus faecium = assay: MIC agar dilution, micro-organism 16 (7171); settings: Enterococcus faecium 7171
Description: as §1, §2, §3, §4, §5, §6, §7
as §8, with “mmol/L. […]” for “mmol/L.”

Candida glabrata = assay: MIC agar dilution, micro-organism 20 (3943); settings: Candida glabrata 3943
Description: as §1, §2, §3, §4, §5, §6, §7
as §8, with “mmol/L. […]” for “mmol/L.”

Yersinia enterocolitica = assay: MIC agar dilution, micro-organism 8 (11176); settings: Yersinia enterocolitica 11176
Description: as §1, §2, §3, §4, §5, §6, §7, §8, §9

[1] = test system: Staphylococcus epidermidis; assay: MIC agar dilution, micro-organism 14 (11047); settings: Staphylococcus epidermidis 11047
Description: as §1, §2, §3, §4, §5, §6, §7
as §8, with “mmol/L. […]” for “mmol/L.”

Steptococcus pyogenes = assay: MIC agar dilution, micro-organism 11 (8306); settings: Steptococcus pyogenes 8306
Description: as §1, §2, §3, §4, §5, §6, §7
as §8, with “mmol/L. […]” for “mmol/L.”

Serratia marcescens = assay: MIC agar dilution, micro-organism 5 (10211); settings: Serratia marcescens 10211
Description: as §1, §2, §3, §4, §5, §6, §7, §8, §9

Klebsiella pneumoniae = assay: MIC agar dilution, micro-organism 2 (9528); settings: Klebsiella pneumoniae 9528
Description: as §1, §2, §3, §4, §5, §6, §7, §8, §9

[2] = test system: Staphylococcus aureus (MRSA); assay: MIC agar dilution, micro-organism 12 (11939); settings: Staphylococcus aureus (MRSA) 11939
Description: as §1, §2, §3, §4, §5, §6, §7
as §8, with “mmol/L. […]” for “mmol/L.”

Bacillus subtilis = assay: MIC agar dilution, micro-organism 18 (9372); settings: Bacillus subtilis 9372
Description: as §1, §2, §3, §4, §5, §6, §7
as §8, with “mmol/L. […]” for “mmol/L.”

[3] = Staphylococcus aureus, 48 h, 48 hrs, read-out: MIC
[4] = Salmonella enterica, 48 hrs, read-out: MIC
[5] = Nakaseomyces glabratus, 48 h, 48 hrs, read-out: MIC
[6] = Staphylococcus aureus, MRSA, 48 h, 48 hrs, read-out: MIC

MIC (Pseudomonas aeruginosa; 22 hrs): >880 µM | MIC (Pseudomonas aeruginosa; 48 hrs): >880 µM | MIC (Listeria monocytogenes; 22 hrs): >880 µM | MIC (Listeria monocytogenes; 48 hrs): >880 µM | MIC (Acinetobacter baumannii; 22 hrs): >880 µM | MIC (Acinetobacter baumannii; 48 hrs): >880 µM | MIC (Staphylococcus aureus; 22 hrs): >880 µM | MIC (Staphylococcus aureus; 48 hrs): >880 µM | MIC (Enterobacter cloacae; 22 hrs): >880 µM | MIC (Enterobacter cloacae; 48 hrs): >880 µM | MIC (Candida albicans; 22 hrs): >880 µM | MIC (Candida albicans; 48 hrs): >880 µM | MIC (Burkholderia cepacia; 22 hrs): >880 µM | MIC (Burkholderia cepacia; 48 hrs): >880 µM | MIC (Enterococcus faecalis; 22 hrs): >880 µM | MIC (Enterococcus faecalis; 48 hrs): >880 µM | MIC (Providencia rettgeri; 22 hrs): >880 µM | MIC (Providencia rettgeri; 48 hrs): >880 µM | MIC (Escherichia coli; 22 hrs): >880 µM | MIC (Escherichia coli; 48 hrs): >880 µM | MIC (Salmonella typhimurium; 22 hrs): >880 µM | MIC (Salmonella typhimurium; 48 hrs): >880 µM | MIC (Enterococcus faecium; 22 hrs): >880 µM | MIC (Enterococcus faecium; 48 hrs): >880 µM | MIC (Candida glabrata; 22 hrs): 880 µM (≈ 252 µg/mL) | MIC (Candida glabrata; 48 hrs): 880 µM (≈ 252 µg/mL) | MIC (Yersinia enterocolitica; 22 hrs): >880 µM | MIC (Yersinia enterocolitica; 48 hrs): >880 µM | MIC ([1]; 22 hrs): >880 µM | MIC ([1]; 48 hrs): >880 µM | MIC (Steptococcus pyogenes; 22 hrs): >880 µM | MIC (Steptococcus pyogenes; 48 hrs): >880 µM | MIC (Serratia marcescens; 22 hrs): >880 µM | MIC (Serratia marcescens; 48 hrs): >880 µM | MIC (Klebsiella pneumoniae; 22 hrs): >880 µM | MIC (Klebsiella pneumoniae; 48 hrs): >880 µM | MIC ([2]; 22 hrs): >880 µM | MIC ([2]; 48 hrs): >880 µM | MIC (Bacillus subtilis; 22 hrs): >880 µM | MIC (Bacillus subtilis; 48 hrs): >880 µM
Compound: CCCCCCCCCCCCCCCCOCCO [C16E1, ceteth-1]

MIC (Pseudomonas aeruginosa; 48 hrs, read-out: MIC): > 880 µM | MIC (Listeria monocytogenes; 48 hrs, read-out: MIC): > 880 µM | MIC (Acinetobacter baumannii; 48 hrs, read-out: MIC): > 880 µM | MIC (Staphylococcus aureus; [3]): > 880 µM | MIC (Enterobacter cloacae; 48 hrs, read-out: MIC): > 880 µM | MIC (Candida albicans; 48 hrs, read-out: MIC): > 880 µM | MIC (Burkholderia cepacia; 48 hrs, read-out: MIC): > 880 µM | MIC (Enterococcus faecalis; 48 hrs, read-out: MIC): > 880 µM | MIC (Providencia rettgeri; 48 hrs, read-out: MIC): > 880 µM | MIC (Escherichia coli; 48 hrs, read-out: MIC): > 880 µM | MIC (Salmonella typhimurium; [4]): > 880 µM | MIC (Enterococcus faecium; 48 hrs, read-out: MIC): > 880 µM | MIC (Candida glabrata; [5]): > 880 µM | MIC (Yersinia enterocolitica; 48 hrs, read-out: MIC): > 880 µM | MIC ([1]; 48 hrs, read-out: MIC): > 880 µM | MIC (Steptococcus pyogenes; 48 h, 48 hrs, read-out: MIC): > 880 µM | MIC (Serratia marcescens; 48 hrs, read-out: MIC): > 880 µM | MIC (Klebsiella pneumoniae; 48 hrs, read-out: MIC): > 880 µM | MIC [2, 6]: > 880 µM | MIC (Bacillus subtilis; 48 hrs, read-out: MIC): > 880 µM
Compound: OCCCCCCCCCCCCO [D, 1,12-dodecanediol, reference compound]

MIC (Pseudomonas aeruginosa; 48 hrs, read-out: MIC): > 880 µM | MIC (Listeria monocytogenes; 48 hrs, read-out: MIC): > 880 µM | MIC (Acinetobacter baumannii; 48 hrs, read-out: MIC): > 880 µM | MIC (Staphylococcus aureus; [3]): > 880 µM | MIC (Enterobacter cloacae; 48 hrs, read-out: MIC): > 880 µM | MIC (Candida albicans; 48 hrs, read-out: MIC): > 880 µM | MIC (Burkholderia cepacia; 48 hrs, read-out: MIC): > 880 µM | MIC (Enterococcus faecalis; 48 hrs, read-out: MIC): > 880 µM | MIC (Providencia rettgeri; 48 hrs, read-out: MIC): > 880 µM | MIC (Escherichia coli; 48 hrs, read-out: MIC): > 880 µM | MIC (Salmonella typhimurium; [4]): > 880 µM | MIC (Enterococcus faecium; 48 hrs, read-out: MIC): > 880 µM | MIC (Candida glabrata; [5]): > 880 µM | MIC (Yersinia enterocolitica; 48 hrs, read-out: MIC): > 880 µM | MIC ([1]; 48 hrs, read-out: MIC): > 880 µM | MIC (Steptococcus pyogenes; 48 h, 48 hrs, read-out: MIC): 880 µM (≈ 333 µg/mL) | MIC (Serratia marcescens; 48 hrs, read-out: MIC): > 880 µM | MIC (Klebsiella pneumoniae; 48 hrs, read-out: MIC): 880 µM (≈ 333 µg/mL) | MIC [2, 6]: > 880 µM | MIC (Bacillus subtilis; 48 hrs, read-out: MIC): > 880 µM
Compound: OCCOCCOCCCCCCCCCCCCOCCOCCO [DEG2, 3,6,19,22-tetraoxatetracosane-1,24-diol]
